Data taken from patent US8097592B2, “Cocrystal of C-glycoside derivative and L-proline” (Astellas Pharma Inc., priority 2006, dated 2012).

Columns and labels:
[1] = Moisture absorptivity test (weight change, VTI SGS-100); assay type: physicochemical; conditions: for moisture absorption behaviour: interval 5%
Description: [Moisture Absorptivity Test] Weight change was measured by using of “VTI SGS-100” under the conditions of temperature=25° C., relative humidity range=5 to 95%, and relative humidity interval=5%. […] Further, while known compound A gives moisture absorption curves slightly different from each other depending upon the particle size and crystal habit, there was a case that 3.2% of water was desorbed and absorbed at 25° C. at 5 to 95% RH.

[2] = test system: KK-A^y mice; assay: Test for confirming effect of antihyperglycemic action (blood sugar AUC 0 to 8 hours); assay type: in vivo; conditions: non-fasted male KK-A^y mice, oral, 1 mg/10 mL suspension at 10 mL/kg
Description: (Test 2): [Test for Confirming Effect of Antihyperglycemic Action] Non-fasted KK-A^y mice (Clea Japan, Inc., male) were used as a test animal. The cocrystal of the present invention was suspended in an aqueous 0.5% methyl cellulose solution, in a concentration of 1 mg/10 mL. The body weight of each mouse was measured, and the suspension of the cocrystal of the present invention was forcibly administered orally in an amount of 10 mL/kg. Only the aqueous 0.5% methyl cellulose solution was administered to a control group. The number of mice per each group was 6. Blood samples were taken from the tail vein of each mouse right before administration and 1, 2, 4 and 8 hours after administration. Blood sugar value was measured using Glucose CII Test Wako (Wako Pure Chemical Industries, ltd.). From the blood sugar values of the cocrystal of the present invention-administered group at 0 to 8 hours were calculated an area under blood sugar value-time curve (AUC) according to the trapezoidal method; a ratio (%) of that area to the area of control group was determined; and it was taken as intensity of […] action.

[3] = Storage stability test (X-ray powder diffraction at various humidities and storage conditions); assay type: physicochemical
Description: (2) Humidity-Controlled Measurement “MAC Science […] 22 with a multifunctional humidity and temperature converter ([…] 235)” equipped with a copper X-ray tube was used under the conditions of a current of 350 mA, a tube voltage of 50 kV, a sampling width of 0.020°, a scanning rate of 3°/min, wavelength of 1.54056 Å, and measurement angles of diffraction range of (2θ): 5 to 40°. [Storage Stability Test] The measurement of X-ray powder diffraction was conducted continuously at 25° C. in a relative humidity range of 2 to 88%.

[4] = molecular target: Human Na^+-Glucose Cotransporter (Human SGLT2) (Homo sapiens, UniProt P31639); assay: cell-based
Chain of Human Na^+-Glucose Cotransporter (Human SGLT2) (P31639 whole entry): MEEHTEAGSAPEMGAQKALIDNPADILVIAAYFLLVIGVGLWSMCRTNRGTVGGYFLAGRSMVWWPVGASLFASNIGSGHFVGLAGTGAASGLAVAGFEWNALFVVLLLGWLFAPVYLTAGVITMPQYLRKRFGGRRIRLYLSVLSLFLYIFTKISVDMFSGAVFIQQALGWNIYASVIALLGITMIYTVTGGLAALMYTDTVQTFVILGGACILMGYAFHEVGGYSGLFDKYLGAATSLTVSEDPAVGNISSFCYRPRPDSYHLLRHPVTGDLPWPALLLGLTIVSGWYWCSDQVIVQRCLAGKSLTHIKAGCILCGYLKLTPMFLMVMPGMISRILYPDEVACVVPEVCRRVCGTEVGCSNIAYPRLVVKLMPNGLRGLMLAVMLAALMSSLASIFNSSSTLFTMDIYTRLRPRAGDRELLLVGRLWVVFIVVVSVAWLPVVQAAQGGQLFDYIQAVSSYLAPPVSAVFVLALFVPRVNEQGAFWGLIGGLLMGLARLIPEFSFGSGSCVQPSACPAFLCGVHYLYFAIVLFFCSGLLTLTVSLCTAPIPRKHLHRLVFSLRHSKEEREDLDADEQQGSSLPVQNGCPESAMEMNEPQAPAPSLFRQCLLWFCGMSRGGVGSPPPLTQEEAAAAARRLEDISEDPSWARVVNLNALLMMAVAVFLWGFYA
Description: (Test 1) [Test for Confirming Effect of Inhibiting Activity of Human Na^+-Glucose Cotransporter (Human SGLT2)]
3) Measurement of Inhibition of methyl-α-D-glucopyranoside Intake
After removing the medium of a CHO cell which stably express the human SGLT2, a pretreatment buffer solution (buffer solution of pH 7.4 containing choline chloride (140 mM), potassium chloride (2 mM), calcium chloride (1 mM), magnesium chloride (1 mM), 2-[4-(2-hydroxyethyl)-1-piperazinyl]ethanesulfonic acid (10 mM), and tris(hydroxymethyl)aminomethane (5 mM)) was added in the amount of 100 μl per well, and incubated at 37° C. for 20 minutes.
11 μl of methyl-α-D-(U-14C) glucopyranoside
(manufactured by Amersham Pharmacia Biotech) was added to and mixed with 1,000 μl of a buffer solution for intake containing a cocrystal of the present invention (buffer solution of pH 7.4 containing sodium chloride (140 mM), potassium chloride (2 mM), calcium chloride (1 mM), magnesium chloride (1 mM), methyl-α-D-glucopyranoside (50 μM), 2-[4-(2-hydroxyethyl)-1-piperazinyl]ethanesulfonic acid (10 mM), and tris(hydroxymethyl)aminomethane (5 mM)) to prepare a buffer solution for intake. A buffer solution for intake without a test crystal was prepared for a control group. […]

[5] = 25° C., relative humidity range 5 to 95%

physical stability in the moisture absorptivity test [1, 5] | moisture content ([1]; 25° C., total relative humidity range of 5 to 95%) | physical change on standing ([3]; up to 7 days at room temperature (25° C.) at 63.5% RH to 84% RH) | IC50 [4] | water desorbed and absorbed ([1]; 25° C. at 5 to 95% RH) | weight change ([1]; 25° C., from relative humidity of 25 to 35%) | X-ray powder diffraction change associated with the change of relative humidity ([3]; 25° C., relative humidity range of 2 to 88%, continuous measurement) | physical stability of crystals of free form ([3]; crystals from various crystallization conditions, room temperature and low humidity) | SMILES | moisture absorption behaviour [1, 5] | intensity of antihyperglycemic action (ratio of blood sugar AUC to control group) [2] | physical stability on standing ([3]; 40° C./75% RH/open) | physical stability on standing ([3]; 60° C./uncontrolled humidity) | physical stability on standing ([3]; 80° C./uncontrolled humidity)
stable physically | ≤ 0.7% | no physical change | 5.8 nM | – | – | – | – | OC[C@H]1O[C@@H](c2ccc(F)c(Cc3cc4ccccc4s3)c2)[C@H](O)[C@@H](O)[C@@H]1O [cocrystal of the present invention, cocrystal of (1S)-1,5-anhydro-1-[3-(1-benzothien-2-ylmethyl)-4-fluorophenyl]-D-glucitol and L-proline] | no moisture absorptivity | strong antihypoglycemic action | physically stable for at least two months | physically stable for at least two months | physically stable for at least two months
– | – | – | – | 3.2% | sharp increase in weight | shift of diffraction angle | physically unstable crystals | OC[C@H]1O[C@@H](c2ccc(F)c(Cc3cc4ccccc4s3)c2)[C@H](O)[C@@H](O)[C@@H]1O [known compound A, (1S)-1,5-anhydro-1-[3-(1-benzothien-2-ylmethyl)-4-fluorophenyl]-D-glucitol, reference compound] | non-stoichiometric moisture absorption accompanied by physical change at low humidity | – | – | – | –
